Experimental data from the CheMixHub ionic liquid set.
± gives the uncertainty stated by the source.

Experiment: xn = mol fraction of the nth substance listed

CCCCCn1cc[n+](C)c1.O=S(=O)([N-]S(=O)(=O)C(F)(F)F)C(F)(F)F + O
100 kPa, x2 = 0.2211
Settings | viscosity [mPa·s]
313.15 K | 22.15 ± 0.19
318.15 K | 18.86 ± 0.16

CCCn1cc[n+](CCC)c1.O=S(=O)([N-]S(=O)(=O)C(F)(F)F)C(F)(F)F + O
100 kPa, x2 = 0.2232
Settings | viscosity [mPa·s]
303.15 K | 29.21 ± 0.25
313.15 K | 20.49 ± 0.18
333.15 K | 11.48 ± 0.1
348.15 K | 8.09 ± 0.07
363.15 K | 6 ± 0.05

C[N+](C)(C)CCO.O=C([O-])[C@@H]1CCCN1 + O
viscosity [mPa·s], 100 kPa
Settings | x1 = 0.01436 | x1 = 0.02022 | x1 = 0.03417
308.15 K | 1.18 ± 0.04 | 1.23 ± 0.04 | –
338.15 K | – | – | 1.23 ± 0.04

NCCOCCO + O + CCCC[n+]1ccn(C)c1.O=S(=O)([O-])C(F)(F)F
viscosity [mPa·s], 101 kPa
Settings | 293.15 K | 298.15 K | 303.15 K | 308.15 K | 313.15 K | 318.15 K | 323.15 K | 328.15 K | 333.15 K
x1 = 0.182, x2 = 0.8049 | 11.31 ± 0.21 | 9.2 ± 0.17 | 7.59 ± 0.15 | 6.34 ± 0.12 | 5.37 ± 0.1 | 4.581 ± 0.085 | 3.959 ± 0.072 | 3.457 ± 0.061 | 3.052 ± 0.038
x1 = 0.2233, x2 = 0.7322 | 15.97 ± 0.2 | 12.84 ± 0.16 | 10.48 ± 0.13 | 8.66 ± 0.11 | 7.252 ± 0.092 | 6.139 ± 0.078 | 5.248 ± 0.067 | 4.534 ± 0.057 | 3.956 ± 0.051
x1 = 0.4053, x2 = 0.4752 | 28.79 ± 0.4 | 22.55 ± 0.31 | 17.99 ± 0.25 | 14.6 ± 0.2 | 12.01 ± 0.17 | 10.05 ± 0.14 | 8.52 ± 0.12 | 7.25 ± 0.1 | 6.179 ± 0.086

O=[N+]([O-])[O-].O=[N+]([O-])[O-].[Mg+2] + O + CC[NH3+].O=[N+]([O-])[O-]
100 kPa
Settings | electrical conductivity [S/m] | viscosity [mPa·s]
223 K, x1 = 0.2128, x2 = 0.6185 | 0.001 ± 0.001 | –
233 K, x1 = 0.2128, x2 = 0.6185 | 0.006 ± 0.001 | –
243 K, x1 = 0.1395, x2 = 0.4931 | 0.002 ± 0.001 | –
243 K, x1 = 0.2128, x2 = 0.6185 | 0.02 ± 0.002 | –
253 K, x1 = 0.1395, x2 = 0.4931 | 0.019 ± 0.002 | –
253 K, x1 = 0.2128, x2 = 0.6185 | 0.052 ± 0.005 | –
263 K, x1 = 0.1395, x2 = 0.4931 | 0.077 ± 0.008 | –
263 K, x1 = 0.2128, x2 = 0.6185 | 0.113 ± 0.011 | –
273 K, x1 = 0.1395, x2 = 0.4931 | 0.206 ± 0.021 | –
273 K, x1 = 0.2128, x2 = 0.6185 | 0.216 ± 0.022 | –
283 K, x1 = 0.1395, x2 = 0.4931 | 0.429 ± 0.043 | –
283 K, x1 = 0.2128, x2 = 0.6185 | 0.375 ± 0.038 | –
288.15 K, x1 = 0.1395, x2 = 0.4931 | – | 172 ± 12
288.15 K, x1 = 0.2128, x2 = 0.6185 | – | 334 ± 28
293 K, x1 = 0.1395, x2 = 0.4931 | 0.76 ± 0.076 | –
293 K, x1 = 0.2128, x2 = 0.6185 | 0.602 ± 0.06 | –
293.15 K, x1 = 0.1395, x2 = 0.4931 | – | 138.7 ± 6.6
293.15 K, x1 = 0.2128, x2 = 0.6185 | – | 253 ± 18
298.15 K, x1 = 0.1395, x2 = 0.4931 | – | 112.6 ± 4.4
298.15 K, x1 = 0.2128, x2 = 0.6185 | – | 193 ± 12
303 K, x1 = 0.1395, x2 = 0.4931 | 1.2 ± 0.12 | –
303 K, x1 = 0.2128, x2 = 0.6185 | 0.91 ± 0.091 | –
303.15 K, x1 = 0.1395, x2 = 0.4931 | – | 92 ± 2.9
303.15 K, x1 = 0.2128, x2 = 0.6185 | – | 148.9 ± 7.4
308.15 K, x1 = 0.1395, x2 = 0.4931 | – | 75.7 ± 2
308.15 K, x1 = 0.2128, x2 = 0.6185 | – | 115.8 ± 4.6
313 K, x1 = 0.1395, x2 = 0.4931 | 1.74 ± 0.17 | –
313 K, x1 = 0.2128, x2 = 0.6185 | 1.31 ± 0.13 | –
313.15 K, x1 = 0.1395, x2 = 0.4931 | – | 62.7 ± 1.4
313.15 K, x1 = 0.2128, x2 = 0.6185 | – | 90.7 ± 2.9
323 K, x1 = 0.1395, x2 = 0.4931 | 2.37 ± 0.24 | –
323 K, x1 = 0.2128, x2 = 0.6185 | 1.8 ± 0.18 | –
333 K, x1 = 0.1395, x2 = 0.4931 | 3.08 ± 0.31 | –
333 K, x1 = 0.2128, x2 = 0.6185 | 2.39 ± 0.24 | –
343 K, x1 = 0.1395, x2 = 0.4931 | 3.86 ± 0.39 | –
343 K, x1 = 0.2128, x2 = 0.6185 | 3.08 ± 0.31 | –
353 K, x1 = 0.1395, x2 = 0.4931 | 4.69 ± 0.47 | –
353 K, x1 = 0.2128, x2 = 0.6185 | 3.88 ± 0.39 | –
363 K, x1 = 0.1395, x2 = 0.4931 | 5.56 ± 0.56 | –
363 K, x1 = 0.2128, x2 = 0.6185 | 4.78 ± 0.48 | –
373 K, x1 = 0.1395, x2 = 0.4931 | 6.46 ± 0.65 | –
373 K, x1 = 0.2128, x2 = 0.6185 | 5.78 ± 0.58 | –

CCCC[n+]1ccn(C)c1.O=[N+]([O-])[O-] + O + NCCO
100 kPa
Settings | viscosity [mPa·s]
303 K, x1 = 0.2218, x2 = 0.4128 | 15.07 ± 0.33
303 K, x1 = 0.2959, x2 = 0.2542 | 17.98 ± 0.39
308 K, x1 = 0.2218, x2 = 0.4128 | 12.54 ± 0.27
308 K, x1 = 0.2959, x2 = 0.2542 | 14.93 ± 0.32
313 K, x1 = 0.01284, x2 = 0.8603 | 2.342 ± 0.056
313 K, x1 = 0.02953, x2 = 0.8245 | 2.9 ± 0.066
313 K, x1 = 0.05213, x2 = 0.7761 | 3.701 ± 0.082
313 K, x1 = 0.08442, x2 = 0.707 | 4.94 ± 0.11
313 K, x1 = 0.1343, x2 = 0.6001 | 6.9 ± 0.15
313 K, x1 = 0.2218, x2 = 0.4128 | 10.58 ± 0.23
313 K, x1 = 0.2959, x2 = 0.2542 | 12.55 ± 0.27
313 K, x1 = 0.4146, x2 = 0 | 17.77 ± 0.38
318 K, x1 = 0.2218, x2 = 0.4128 | 9.05 ± 0.2
318 K, x1 = 0.2959, x2 = 0.2542 | 10.69 ± 0.23
323 K, x1 = 0.2218, x2 = 0.4128 | 7.81 ± 0.17
323 K, x1 = 0.2959, x2 = 0.2542 | 9.2 ± 0.2

C[NH+](C)C.O=S(=O)([N-]S(=O)(=O)C(F)(F)F)C(F)(F)F + O=C1CCCO1
101 kPa
Settings | electrical conductivity [S/m] | viscosity [mPa·s]
298.15 K, x1 = 0.0005 | 0.043 ± 0.002 | –
298.15 K, x1 = 0.0008 | 0.059 ± 0.002 | –
298.15 K, x2 = 0.5239 | 1.89 ± 0.076 | –
303.15 K, x2 = 0.8088 | – | 3.08 ± 0.15
303.15 K, x2 = 0.8803 | – | 2.34 ± 0.12
313.15 K, x2 = 0.672 | – | 3.62 ± 0.17
313.15 K, x2 = 0.8803 | – | 1.86 ± 0.1
333.15 K, x2 = 0.7428 | – | 1.87 ± 0.1
343.15 K, x2 = 0.8803 | – | 0.98 ± 0.07
